Data from patent US20230405008A1, “TREATMENT OF HEMATOLOGICAL MALIGNANCIES WITH INHIBITORS OF MENIN” (Kura Oncology, Inc., priority 2020, published 2023).

What follows are compounds tested against T1, menin-MLL interaction (Homo sapiens, UniProt O00255) (assay: Fluorescence polarization (FP) competition assay). Conditions: menin / MLL 4-43 peptide.
T1 sequence (O00255 1-610): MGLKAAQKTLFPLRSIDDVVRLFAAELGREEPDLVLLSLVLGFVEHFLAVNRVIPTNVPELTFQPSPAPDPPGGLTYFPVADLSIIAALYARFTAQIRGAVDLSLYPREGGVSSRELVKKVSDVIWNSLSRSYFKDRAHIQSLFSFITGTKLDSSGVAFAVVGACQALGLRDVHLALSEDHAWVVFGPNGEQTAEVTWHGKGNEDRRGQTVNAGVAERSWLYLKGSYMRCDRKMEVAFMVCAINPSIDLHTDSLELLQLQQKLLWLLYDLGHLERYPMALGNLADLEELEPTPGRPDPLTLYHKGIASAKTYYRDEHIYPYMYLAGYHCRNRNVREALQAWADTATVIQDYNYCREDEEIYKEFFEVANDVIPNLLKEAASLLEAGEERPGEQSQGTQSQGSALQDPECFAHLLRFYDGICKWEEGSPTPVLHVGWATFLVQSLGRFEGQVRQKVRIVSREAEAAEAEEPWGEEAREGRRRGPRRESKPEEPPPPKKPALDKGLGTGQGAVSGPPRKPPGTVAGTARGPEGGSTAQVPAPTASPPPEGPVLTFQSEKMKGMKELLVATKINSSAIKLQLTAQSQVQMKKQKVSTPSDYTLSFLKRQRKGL
Format: binding

Row | SMILES | IC50
1 | Cc1c(CN2CCC(Nc3ncnc4sc(CC(F)(F)F)cc34)CC2)ccc2c1cc(C#N)n2CCN1CC2(CCN(S(C)(=O)=O)C2)C1 [Compound I-58] | 250 to 1000 nM
2 | Cc1c(CN2CCC(Nc3ncnc4sc(CC(F)(F)F)cc34)CC2)ccc2c1cc(C#N)n2CCN1CC2(CCN(S(C)(=O)=O)CC2)C1 [Compound I-56] | 250 to 1000 nM
3 | CCS(=O)(=O)NC12CC(Cn3c(C#N)cc4c(C)c(CN5CCC(Nc6ncnc7sc(CC(F)(F)F)cc67)CC5)ccc43)(C1)C2 [II-4] | 250 to 1000 nM
4 | Cc1c(CN2CCC(Nc3ncnc4sc(CC(F)(F)F)cc34)CC2)ccc2c1cc(C#N)n2CC(C)C1CCN(S(C)(=O)=O)CC1 (stereo not shown) [Compound I-3] | 250 to 1000 nM
5 | CNS(=O)(=O)N1CCN(C(C)Cn2c(C#N)cc3c(C)c(CN4CCC(Nc5ncnc6sc(CC(F)(F)F)cc56)CC4)ccc32)CC1 (stereo not shown) [Compound I-128] | 50 to 250 nM
6 | CNc1nc(NC2CCN(Cc3ccc4c(cc(C#N)n4C[C@H](C)N4CCN(S(=O)(=O)NC)CC4)c3C)CC2)c2cc(CC(F)(F)F)sc2n1 [Compound I-185] | 50 to 250 nM
7 | Cc1c(CN2CCC(Nc3ncnc4sc(CC(F)(F)F)cc34)CC2)ccc2c1cc(C#N)n2CCN1CCN(S(C)(=O)=O)CC1C (stereo not shown) [Compound I-45] | 250 to 1000 nM
8 | Cc1c(CN2CCC(Nc3ncnc4sc(CC(F)(F)F)cc34)CC2)ccc2c1cc(C#N)n2C[C@@H](C)N1CCN(C=O)CC1 [Compound I-67] | 250 to 1000 nM
9 | Cc1c(CN2CCC(Nc3ncnc4sc(CC(F)(F)F)cc34)CC2)ccc2c1cc(C#N)n2C[C@H](C)N1CCN(C(=O)C(F)(F)F)CC1 [Compound I-118] | 250 to 1000 nM
10 | Cc1c(CN2CCC(Nc3ncnc4sc(CC(F)(F)F)cc34)CC2)ccc2c1cc(C#N)n2CCN1CC2CN(S(C)(=O)=O)CC2C1 (stereo not shown) [Compound I-55] | 250 to 1000 nM
11 | Cc1c(CN2CCC3(CCN(c4ncnc5sc(CC(F)(F)F)cc45)C3)C2)ccc2[nH]c(C#N)cc12 (stereo not shown) [III-30a] | 50 to 250 nM
12 | Cc1c(CN2CCC(Nc3ncnc4sc(CC(F)(F)F)cc34)CC2)ccc2c1cc(C#N)n2CC12CC(NC(=O)C3CCCC(=O)N3)(C1)C2 (stereo not shown) [II-35] | < 50 nM
13 | Cc1c(CN2CCC(Nc3ncnc4sc(CC(F)(F)F)cc34)CC2)ccc2c1cc(C#N)n2CCN1CCN(C2CCN(S(C)(=O)=O)C2)CC1 (stereo not shown) [Compound I-52] | 250 to 1000 nM
14 | CNS(=O)(=O)N1CCN([C@H](C)Cn2c(C#N)cc3c(C)c(CN4CCC(Nc5ncnc6sc(CC(F)(F)F)cc56)CC4)ccc32)CC1 [Compound I-66] | 250 to 1000 nM
15 | CS(=O)(=O)N[C@H]1CC[C@H](CN2CCC3(CCN(c4ncnc5sc(CC(F)(F)F)cc45)C3)C2)CC1 (stereo partly shown) [III-48] | 250 to 1000 nM
16 | CC[C@H]1CN(C(C)Cn2c(C#N)cc3c(C)c(CN4CCC(Nc5ncnc6sc(CC(F)(F)F)cc56)CC4)ccc32)CCN1S(C)(=O)=O (stereo partly shown) [Compound I-26] | 250 to 1000 nM

Row | SMILES | IC50
17 | Cc1c(CN2CCC(Nc3ncnc4sc(CC(F)(F)F)cc34)CC2)ccc2c1cc(C#N)n2CCN1CC(C)N(S(C)(=O)=O)CC1C (stereo not shown) [Compound I-44] | 250 to 1000 nM
18 | COc1nc(NC2CCN(Cc3ccc4c(cc(C#N)n4C[C@H](C)N4CCC(S(C)(=O)=O)CC4)c3C)CC2)c2cc(CC(F)(F)F)sc2n1 [Compound I-218] | < 50 nM
19 | Cc1nc(NC2CCN(Cc3ccc4c(cc(C#N)n4C[C@@H](C)N4CCN(S(C)(=O)=O)CC4)c3C)CC2)c2cc(CC(F)(F)F)sc2n1 [Compound I-201] | 250 to 1000 nM
20 | CS(=O)(=O)Nc1ccc(CN2CCC3(CCN(c4ncnc5sc(CC(F)(F)F)cc45)C3)C2)cc1 (stereo not shown) [III-38] | 50 to 250 nM
21 | Cc1c(CN2CCC(Nc3ncnc4sc(CC(F)(F)F)cc34)CC2)ccc2c1cc(C#N)n2CCN1CC2(C1)CN(S(C)(=O)=O)C2 [Compound I-57] | 250 to 1000 nM
22 | Cc1c(CN2CCC(Nc3ncnc4sc(CC(F)(F)F)cc34)CC2)ccc2c1cc(C#N)n2C[C@H](C)N1CCC(NP(C)(C)=O)CC1 [Compound I-157] | 250 to 1000 nM
23 | C=CC(=O)Nc1ccc(C(Cn2c(C#N)cc3c(C)c(CN4CCC(Nc5ncnc6sc(CC(F)(F)F)cc56)CC4)ccc32)OC)cc1 (stereo not shown) [Compound I-1] | 250 to 1000 nM
24 | CNc1nc(NC2CCN(Cc3ccc4c(cc(C#N)n4CCN4CCN(S(C)(=O)=O)[C@H](C#N)C4)c3C)CC2)c2cc(CC(F)(F)F)sc2n1 [Compound I-209] | < 50 nM
25 | Cc1c(CN2CCC(Nc3ncnc4sc(CC(F)(F)F)cc34)CC2)ccc2c1cc(C#N)n2CCN1CCC2(CC1)CC(S(C)(=O)=O)C2 [Compound I-54] | 50 to 250 nM
26 | Cc1c(CN2CCC(Nc3ncnc4sc(CC(F)(F)F)cc34)CC2)ccc2c1cc(C#N)n2CCC1CCN(S(C)(=O)=O)C(C)C1 (stereo not shown) [Compound I-59] | 250 to 1000 nM
27 | Cc1c(CN2CCC(Nc3ncnc4sc(CC(F)(F)F)cc34)CC2)ccc2c1cc(C#N)n2CCN1CCC2(CCN(S(C)(=O)=O)C2)C1 (stereo not shown) [Compound I-53] | 250 to 1000 nM
28 | Cc1c(CN2CCC(Nc3nc(C4CC4)nc4sc(CC(F)(F)F)cc34)CC2)ccc2c1cc(C#N)n2C[C@H](C)N1CCN(S(C)(=O)=O)CC1 [Compound I-173] | 250 to 1000 nM
29 | Cc1c(CN2CCC(Nc3ncnc4sc(CC(F)(F)F)cc34)CC2)ccc2c1cc(C#N)n2CC(C)N1CCC(NS(C)(=O)=O)C1 (stereo not shown) [Compound I-162] | 50 to 250 nM
30 | Cc1c(CN2CCC(Nc3ncnc4sc(CC(F)(F)F)cc34)CC2)ccc2c1cc(C#N)n2CC(C(C)C)N1CCN(S(C)(=O)=O)CC1 (stereo not shown) [Compound I-24] | 250 to 1000 nM
31 | Cc1c(CN2CCC(Nc3ncnc4sc(CC(F)(F)F)cc34)CC2)ccc2c1cc(C#N)n2CC(C)N1CCN(S(C)(=O)=O)C(C(=O)O)C1 (stereo not shown) [Compound I-82] | 250 to 1000 nM
